Results published in patent US12522827B2 (priority 2021, dated 2026).
Like-named read-outs stand apart in the source and are kept apart here.

Legend:
[1] = system: A/WSN/33 (H1N1) virus with NA H274Y resistance mutation; type: cell-based, Influenza A/WSN/33 (H1N1)
PR8 = test: microbe, parasite or virus in culture; type: cell-based, Influenza A/PR/8/34 (PR8) H1N1 virus

CCOC(=O)C1=C[C@@H](OC(CC)CC)[C@H](NC(C)=O)[C@@H](N)C1 [Oseltamivir]
IC50 [1]: 53000 nM | increase of IC50 (PR8): 1000 fold | IC50 (PR8; Influenza A virus, PR8, read-out: IC50 after serial passages): 50000 nM | IC50 (PR8; Influenza A virus, PR8, read-out: starting IC50): 41 nM

TACTtactgacaGCC [LNA9]
potency and efficacy [1]: picomolar activity | IC50 (PR8; read-out: IC50 after serial passages): 0.016 nM | IC50 (PR8; read-out: IC50 at start of passaging): 0.018 nM
